According to patent publication US10144705B2 (Commissariat a l'energie atomique et aux energies …, priority 2012, dated 2018):

How the values were obtained:
[1] = system: in-vitro cell-based BBB model (coculture of glial cells and brain endothelial cells); assay type: in vitro ADME
Method: The in-vitro cell-based BBB model which is used to assess the permeability of fatty esters consists in a coculture of glial cells and brain endothelial cells. A transport buffer (150 mM NaCl, 5.2 mM KCl, 2.2 mM CaCl2, 0.2 mM MgCl2, 6 mM NaHCO3, 2.8 mM glucose and 5 mM Hepes) is added: 1500 μl to the basolateral chamber (which represents the cerebral parenchyma) and 500 μl to the apical chamber (which represents the blood). The fatty esters are introduced in the apical compartment. After 60 min, aliquots are removed from the apical and basolateral chambers for drug-concentration determination. The percentage of drug from the initial dosage that crossed BBB is calculated as follows: P (%)=[(Bf×1500)/(A0×500)]×100 where Bf is the amount of tested compounds in the basolateral compartment at the end point. A0 is the initial amount in the apical compartment at time point 0.

[2] = cited from earlier work

SMILES | permeability through the blood brain barrier [1] | translocation within brain endothelial cells or in the basal compartment [1] | oral bioavailability [2]
CCOC(=O)CN(C)C(=N)N [C2] | not | no translocation | –
CN(CC(=O)O)C(=N)N [creatine, 2-1(methylguanidino) acetic acid] | – | – | low
